Test [1] has as its target FGFR1 kinase domain recombinant protein (Homo sapiens, UniProt P11362). The experiment in a line: FGFR1 enzyme activity at molecular level (ELISA, Poly(Glu,Tyr) 4:1 substrate). On the technique in general: ELISA stands for enzyme-linked immunosorbent assay.
Protocol: (§1) The plate was placed at 37° C. for 12-16 hours. The liquid in the well was discarded, the plate was washed, and the panel was washed three times with 200 μL/well of T-PBS (PBS containing 0.1% Tween-20) for 5 minutes each time.
(§2) 50 μL of ATP solution diluted with reaction buffer (50 mM HEPES pH 7.4, 50 mM MgCl2, 0.5 mM MnCl2, 0.2 mM Na3VO4, 1 mM DTT) was added to each well to a final concentration of 5 μM. The compound was diluted to a suitable concentration in DMSO, 1 μL/well or containing the corresponding concentration of DMSO (negative control well), and the FGFR1, FGFR4 kinase domain recombinant protein diluted in 49 μL of reaction buffer was added to initiate the reaction. Two control wells without ATP were required for each experiment. The reaction was carried out for 1 hour at 37° C. on a shaker (100 rpm). The plate was washed three times with T-PBS. Primary antibody, PY99 dilution was added at 100 μL/well and shaken at 37° C. for 0.5 hour. The plate was washed three times with T-PBS. Secondary antibody, horseradish peroxidase-labeled goat anti-mouse IgG dilution was added at 100 μL/well, and shaken at 37° C. for 0.5 hour. […] (Ultrasound was required for the dissolution of OPD, and the chromogenic solution needed to be prepared when used). 2 M H2SO4 was added at 50 μL/well to quench the reaction and a tunable wavelength microplate reader SPECTRA MAX 190 was used at a wavelength of 490 nm.
(§3) The inhibition rate of the sample was obtained by the following formula:
(§4) The IC50 value was obtained by four-parameter regression using the software attached to the microplate reader.
The target of test [2] is FGFR4 kinase domain recombinant protein (Homo sapiens, UniProt P22455). Description: FGFR4 enzyme activity at molecular level (ELISA, Poly(Glu,Tyr) 4:1 substrate).
Chain of FGFR4 kinase domain recombinant protein (P22455 467-755 limits assumed): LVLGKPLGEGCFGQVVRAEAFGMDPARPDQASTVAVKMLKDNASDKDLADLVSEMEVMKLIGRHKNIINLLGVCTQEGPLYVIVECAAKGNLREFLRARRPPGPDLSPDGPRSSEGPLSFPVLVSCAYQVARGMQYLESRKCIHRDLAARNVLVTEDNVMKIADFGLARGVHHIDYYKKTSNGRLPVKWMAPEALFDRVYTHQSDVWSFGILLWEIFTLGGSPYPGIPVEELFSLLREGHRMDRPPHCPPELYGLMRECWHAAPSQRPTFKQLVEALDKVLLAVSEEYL
Protocol: as §1, §2, §3, §4

Chain of FGFR1 kinase domain recombinant protein (P11362 478-767 limits assumed): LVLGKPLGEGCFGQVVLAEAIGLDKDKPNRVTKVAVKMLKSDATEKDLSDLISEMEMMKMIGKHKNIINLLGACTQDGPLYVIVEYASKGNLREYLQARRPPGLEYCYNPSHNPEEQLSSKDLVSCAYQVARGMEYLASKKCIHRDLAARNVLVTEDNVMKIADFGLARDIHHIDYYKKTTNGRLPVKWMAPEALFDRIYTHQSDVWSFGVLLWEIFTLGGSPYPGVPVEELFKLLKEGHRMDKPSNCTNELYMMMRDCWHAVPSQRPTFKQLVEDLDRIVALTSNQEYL

Turning to `C=CC(=O)N1CC[C@H](n2cc(-c3cnc4ccccc4c3)c3c(N)ncnc32)C1` [Control compound, (S)-1-(3-(4-amino-5-(quinolin-3-yl)-7H-pyrrole[2,3-d]pyrimidine-7-yl)pyrrolidine-1-yl)prop-2-en-1-one, reference compound], the figures for the half-inhibitory concentration (IC50) in test [1] and in test [2] were over 100 nM and 10 to 100 nM, respectively. Moreover, the “FGFR inhibitory activity (in words)” value in test [1] (FGFR1 and FGFR4 enzymes, conclusion from Table 2) is “substantially no FGFR inhibitory activity”.
Take `CCN(C)C/C=C/C(=O)N1CCC(n2cc(-c3cc4cc(C)cc(OC)c4s3)c3c(N)ncnc32)C1` (centres unmarked) [NO. 5, (E) 1-(3-(4-amino-5-(7-methoxy-5-methylbenzothiophene-2-yl)-7H-pyrrole[2,3-d]pyrimidine-7-yl)pyrrolidine-1-yl)-4-(ethyl(methy)amino)but-2-en-1-one]: the IC50 in test [1] was under 10 nM; in test [2], 10 to 100 nM.
Regarding `COc1cc(C)cc2cc(-c3cn(C4CCN(C(=O)/C=C/CN(C)C(C)C)C4)c4ncnc(N)c34)sc12` (centres unmarked) [NO. 6, (E)1-(3-(4-amino-5-(7-methoxy-5-methylbenzothiophene-2-yl)-7H-pyrrole[2,3-d]pyrimidine-7-yl)pyrrolidine-1-yl)-4-(isopropyl(methyl)amino)but-2-en-1-one], the concentration for half-maximal inhibition (IC50) was under 10 nM in test [1] and 10 to 100 nM in test [2].
On to `COc1cc(C)cc2cc(-c3cn(C4CCN(C(=O)/C=C/CN5CCCC5)C4)c4ncnc(N)c34)sc12` (centres unmarked) [NO. 7, (E)1-(3-(4-amino-5-(7-methoxy-5-methylbenzothiophene-2-yl)-7H-pyrrole[2,3-d]pyrimidine-7-yl)pyrrolidine-1-yl)-4-(pyrrolidine-1-yl)but-2-en-1-one], for which the IC50 is under 10 nM in test [1] and 10 to 100 nM in test [2].
The matching figures for `COc1cc(C)cc2cc(-c3cn(C4CCN(C(=O)/C=C/CN5CCCCC5)C4)c4ncnc(N)c34)sc12` (centres unmarked) [NO. 8, (E) 1-(3-(4-amino-5-(7-methoxy-5-methylbenzothiophene-2-yl)-7H-pyrrole[2,3-d]pyrimidine-7-yl)pyrrolidine-1-yl)-4-(piperidine-1-yl)but-2-en-1-one]: under 10 nM and 10 to 100 nM.
For `COc1cc(C)cc2cc(-c3cn(C4CCNC4)c4ncnc(N)c34)sc12` (centres unmarked) [NO. 9, 5-(7-methoxy-5-methylbenzothiophene-2-yl)-7-(pyrrolidine-3-yl)-7H-pyrrole[2,3-d]pyrimidine-4-amine], the IC50 is 10 to 100 nM in test [1] and over 100 nM in test [2].
With `COc1cc(C)cc2cc(-c3cn(C4CCN(C(=O)OC(C)(C)C)C4)c4ncnc(N)c34)sc12` (centres unmarked) [NO. 10, tert-butyl 3-(4-amino-5-(7-methoxy-5-methylbenzothiophene-2-yl)-7H-pyrrole[2,3-d]pyrimidine-7-yl) pyrrolidine-1-formate], the values for the IC50 in test [1] and in test [2] were 10 to 100 nM and over 100 nM, respectively.
For `C=CC(=O)N1CC[C@@H](n2cc(-c3cc4cc(C)cc(OC)c4s3)c3c(N)ncnc32)C1` [NO. 11, (R)-1-(3-(4-amino-5-(7-methoxy-5-methylbenzothiophene-2-yl)-7H-pyrrole[2,3-d]pyrimidine-7-yl)pyrrolidine-1-yl)prop-2-en-1-one] the same measures were under 10 nM and 10 to 100 nM.
The matching figures for `COc1cc(C)cc2cc(-c3cn(C4CN(C(=O)/C=C/CN5CCCC5)C4)c4ncnc(N)c34)sc12` [NO. 17]: under 10 nM and 10 to 100 nM.
Regarding `C/C=C/C(=O)N1CCC(n2cc(-c3cc4cc(C)cc(OC)c4s3)c3c(N)ncnc32)C1` (centres unmarked) [NO. 18, (E)-1-(3-(4-amino-5-(7-methoxy-5-methylbenzothiophene-2-yl)-7H-pyrrole[2,3-d]pyrimidine-7-yl)pyrrolidine-1-yl)but-2-en-1-one], the IC50 is under 10 nM in test [1] and 10 to 100 nM in test [2].
For `COc1cc(C)cc2cc(-c3cn(C4CN(C(=O)/C=C/CN(C)C)C4)c4ncnc(N)c34)sc12` [NO. 19, (E)-1-(3-(4-amino-5-(7-methoxy-5-methylbenzothiophene-2-yl)-7H-pyrrole[2,3-d]pyrimidine-7-yl)azetidin-1-yl)-4-(dimethylamino)but-2-en-1-one], the 50% inhibitory concentration (IC50) was under 10 nM in test [1] and 10 to 100 nM in test [2].
The matching figures for `C=CC(=O)N1CCC(Cn2cc(-c3cc4cc(C)cc(OC)c4s3)c3c(N)ncnc32)C1` (centres unmarked) [NO. 20, 1-(3-((4-amino-5-(7-methoxy-5-methylbenzothiophene-2-yl)-7H-pyrrole [2,3-d]pyrimidine-7-yl)methyl)pyrrolidine-1-yl)prop-2-en-1-one]: 10 to 100 nM and 10 to 100 nM.
Consider `C=CC(=O)N1CC(n2cc(-c3cc4cc(C)cc(OC)c4o3)c3c(N)ncnc32)C1` [NO. 23, 1-(3-(4-amino-5-(7-methoxy-5-methylbenzofuran-2-yl)-7H-pyrrole[2,3-d]pyrimidine-7-yl)azetidine-1-yl)prop-2-en-1-one], for which the concentration for half-maximal inhibition (IC50) in test [2] is over 100 nM.
For the compound `COc1cc(C)cc2cc(-c3cn(C4CCN(C(=O)C(C#N)=CC5CC5)C4)c4ncnc(N)c34)sc12` (centres unmarked) [NO. 25, 2-(3-(4-amino-5-(7-methoxy-5-methylbenzothiophene-2-yl)-7H-pyrrole[2,3-d]pyrimidine-7-yl)pyrrolidine-1-carbonyl)-3-cyclopropyl acrylonitrile], the concentration for half-maximal inhibition (IC50) in test [1] and in test [2] was under 10 nM each time.
For the compound `C=C(CN1CCCC1)C(=O)N1CC(n2cc(-c3cc4cc(C)cc(OC)c4s3)c3c(N)ncnc32)C1` [NO. 44, 1-(3-(4-amino-5-(7-methoxy-5-methylbenzothiophene-2-yl)-7H-pyrrole[2,3-d]pyrimidine-7-yl)azetidine-1-yl)-2-(pyrrolidine-1-methylene)prop-2-en-1-one], the IC50 in test [1] and in test [2] was under 10 nM each time.
On to `C=C(CN1CCOCC1)C(=O)N1CC[C@H](n2cc(-c3cc4cc(C)cc(OC)c4s3)c3c(N)ncnc32)C1` [NO. 45, (S) 1-(3-(4-amino-5-(7-methoxy-5-methylbenzothiophane-2-yl)-7H-pyrrole[2,3-d]pyrimidine-7-yl)pyrrolidine-1-yl)-2-(morpholinemethylene)prop-2-en-1-one], for which the IC50 was 10 to 100 nM in test [1] and under 10 nM in test [2].
On to `C=C(CN(CC)CC)C(=O)N1CC[C@H](n2cc(-c3cc4cc(C)cc(OC)c4s3)c3c(N)ncnc32)C1` [NO. 46, (S) 1-(3-(4-amino-5-(7-methoxy-5-methylbenzothiophene-2-yl)-7H-pyrrole[2,3-d]pyrimidine-7-yl)pyrrolidine-1-yl)-2-((diethylamino)methylene)prop-2-en-1-one], for which the 50% inhibitory concentration (IC50) in test [1] was 10 to 100 nM; in test [2] it was under 10 nM.
The matching figures for `C=C(CN1CCCCC1)C(=O)N1CC[C@H](n2cc(-c3cc4cc(C)cc(OC)c4s3)c3c(N)ncnc32)C1` [NO. 48, (S) 1-(3-(4-amino-5-(7-methoxy-5-methylbenzothiophene-2-yl)-7H-pyrrole[2,3-d]pyrimidine-7-yl)pyrrolidine-1-yl)-2-(piperidine-1-methylene)prop-2-en-1-one]: 10 to 100 nM and under 10 nM.
For the compound `C=C(CN1CCN(C)CC1)C(=O)N1CC[C@H](n2cc(-c3cc4cc(C)cc(OC)c4s3)c3c(N)ncnc32)C1` [NO. 49, (S) 1-(3-(4-amino-5-(7-methoxy-5-methylbenzothiophene-2-yl)-7H-pyrrole[2,3-d]pyrimidine-7-yl)pyrrolidine-1-yl)-2-((4-methylpiperazin-1-yl)-methylene)prop-2-en-1-one], the concentration for half-maximal inhibition (IC50) in test [1] is 10 to 100 nM; in test [2], under 10 nM.
Consider `C=CC(=O)NCCn1nc(-c2cc3cc(C)cc(OC)c3s2)c2c(N)ncnc21` [NO. 50, N-(2-(4-amino-3-(7-methoxy-5-methylbenzothiophen-2-yl)-1H-pyrazole[3,4-d]pyrimidine-1-yl)ethyl)acrylamide], for which the 50% inhibitory concentration (IC50) in test [1] and in test [2] was over 100 nM throughout.
With `C=CC(=O)N1CC[C@H](n2cc(-c3cc4cc(Cl)cc(OC)c4s3)c3c(N)ncnc32)C1` [NO. 59, (S)-1-(3-(4-amino-5-(5-chloro-7-methoxybenzothiophene-2-yl)-7H-pyrrole[2,3-d]pyrimidine-7-yl)pyrrolidine-1-yl)prop-2-en-1-one], the IC50 in test [1] is under 10 nM.
Regarding `C=CC(=O)N1CC[C@H](n2cc(-c3cc4cc(F)cc(OC)c4s3)c3c(N)ncnc32)C1` [NO. 60, (S)-1-(3-(4-amino-5-(5-fluoro-7-methoxybenzothiophene-2-yl)-7H-pyrrole[2,3-d]pyrimidine-7-yl)pyrrolidine-1-yl)prop-2-en-1-one], in test [1], the IC50 was under 10 nM.
Same read-out and setting: with `C=CC(=O)N1CC[C@H](n2cc(-c3cc4cc(Br)cc(OC)c4s3)c3c(N)ncnc32)C1` [NO. 62, (S)-1-(3-(4-amino-5-(5-bromo-7-methoxybenzothiophene-2-yl)-7H-pyrrole[2,3-d]pyrimidine-7-yl)pyrrolidine-1-yl)prop-2-en-1-one] the figure was under 10 nM; with `C=CC(=O)N1CCC(n2cc(-c3cc4cc(C)cc(OC)c4s3)c3c(N)nc(OCCN4CCOCC4)nc32)C1` (centres unmarked) [NO. 66, 1-(3-(4-amino-5-(7-methoxy-5-methylbenzothiophene-2-yl)-2-(2-morpholineethoxy)-7H-pyrrole [2,3-d]pyrimidine-7-yl)pyrrolidine-1-yl)prop-2-en-1-one], over 100 nM; with `C=CC(=O)N1CC(n2cc(-c3cc4cc(C)cc(OC)c4s3)c3c(N)ncnc32)CC1CO` (centres unmarked) [NO. 70, 1-(4-(4-amino-5-(7-methoxy-5-methylbenzothiophene-2-yl)-7H-pyrrole[2,3-d]pyrimidine-7-yl)-2-(hydroxymethyl)pyrrolidine-1-yl)prop-2-en-1-one], under 10 nM.
On the same count and under the same terms, to `C=CC(=O)N1CCC(n2c(Cl)c(-c3cc4cc(C)cc(OC)c4s3)c3c(N)ncnc32)C1` (centres unmarked) [NO. 71] belongs under 10 nM.
The same measure, in the same setting: to `C=CC(=O)N1C[C@@H](n2nc(-c3cc4cc(C)cc(OC)c4s3)c3c(N)ncnc32)C[C@H]1C(=O)N(C)CCN(C)C` [NO. 75] belongs under 10 nM.

Broadly, the IC50 is the point on the concentration scale where inhibition reaches its midpoint.

The record behind these values is patent US20190367520A1, “NEW COMPOUND HAVING FGFR INHIBITORY ACTIVITY AND PREPARATION AND APPLICATION THEREOF” (SHANGHAI INSTITUTE OF MATERIA MEDICA, CHINESE ACADEMY OF …, priority 2016, published 2019).
